Results on eleven molecules are retold here after PubChem BioAssay (NCI).

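Cells were grown in 96-well plates and exposed to each compound for 48 hours at five concentrations; endpoints were interpolated linearly between bracketing concentrations, or set to the highest concentration if not reached. GI50 marks 50% less growth. TGI: total growth inhibition.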

Holding throughout (assay): NCI anticancer screen, dose series, 48 h
Assay [1] relates to 786-0 renal.
In assay [2] the test system is EKVX NSCLC.
Assay [3] deals with OVCAR-8 ovarian.
The subject of assay [4] is T-47D breast.
In assay [5] the test system is PC-3 prostate.
In assay [6] the test system is CCRF-CEM leukemia.
The test system of assay [7] is SNB-75 CNS.
Assay [8] relates to UO-31 renal.
Assay [9] deals with NCI-H460 lung.
Assay [10] deals with DU-145 prostate.

For `COC(=O)[C@]12CC[C@@H](C)[C@H](C)[C@@H]1C1=CC[C@@H]3[C@@]4(C)C(C=O)=C[C@@](C)(COC(=O)c5ccco5)[C@@H]4C(=O)C[C@@]3(C)[C@]1(C)CC2`, the GI50 in assay [1] is 7.81 µM; in [2] it was 4.64 µM; in [3], 5.55 µM; in [4], 3.71 µM; in assay [5] it was 3.66 µM; in assay [6], 2.42 µM. For the same molecule, the GI50 in assay [7] is 4.24 µM; in [8], 3.54 µM; in assay [9] it was 3.92 µM; in assay [10], 8.8 µM. The TGI in [1] was more than 100 µM; in assay [2], more than 100 µM; in assay [3] it was more than 100 µM; in assay [4] it was 50.6 µM; in [5], more than 100 µM; in assay [6], 12.6 µM. Also, the TGI in assay [7], in assay [8], in assay [9] and in assay [10] was more than 100 µM in each case.

Regarding `CCOC(=O)/C=C/c1cc2cc(-c3csc4ccccc34)ccc2[nH]1`, the GI50 in assay [1] was 11.3 µM; in assay [2] it was 7.36 µM; in [3] it was 3.79 µM; in assay [4] it was 4.45 µM; in assay [5] it was 3.42 µM; in assay [6] it was 3.04 µM. The GI50 in assay [7] was 6.14 µM; in [8], 4.94 µM; in assay [9] it was 15.5 µM; in [10], 4.83 µM. Further, the TGI came to 26.9 µM in [1]; 20.2 µM in assay [2]; 13.7 µM in assay [3]; 18 µM in assay [4]; 13.8 µM in assay [5]; 11.4 µM in [6]. In addition, the TGI in assay [7] amounted to 20.8 µM; in [8] it was 19.1 µM; in assay [9] it was 31.3 µM; in assay [10], 16.6 µM.

With `Cn1nnnc1N/N=C/c1ccccc1`, the TGI in [1], in assay [2], in assay [3], in assay [4], in assay [5] and in assay [6] was more than 10 µM each time. For the same molecule, the TGI in assay [7], in assay [8], in assay [9] and in assay [10] was more than 10 µM in each case.

Regarding `O=C(Nc1ccc(Cl)cc1F)c1cc(I)ccc1O`, the GI50 in [1] is 2.98 µM; in assay [2], 1.62 µM; in assay [3], 2.02 µM; in [4], 1.44 µM; in [5], 2.07 µM; in assay [6], 2.78 µM. Besides, the GI50 in [7] is 0.187 µM; in [8], 0.385 µM; in assay [9], 1.5 µM; in [10], 3.1 µM. The TGI was 9.24 µM in assay [1]; 8.8 µM in assay [2]; 9.96 µM in assay [3]; 6.3 µM in assay [4]; 6.36 µM in assay [5]; 9.77 µM in assay [6]. For the same molecule, the TGI in [7] was found to be 2.82 µM; in assay [8], 3.18 µM; in [9] it was 14.2 µM; in assay [10], 47.9 µM.

Consider `O=C(CN1CCN(c2ccc(Cl)cc2)CC1)N1CCN(c2nnc(-c3ccc(Cl)cc3)c(-c3ccc(Cl)cc3)n2)CC1`, for which the GI50 in assay [1] is 22 µM; in [2], 21.5 µM; in assay [3] it was more than 100 µM; in [4], 10.8 µM; in assay [5], 57.5 µM; in [6] it was 16.5 µM. Also, the GI50 in assay [7] was 15.1 µM; in [8], 20.3 µM; in assay [9], more than 100 µM; in assay [10] it was 80 µM. For the same molecule, the TGI is more than 100 µM in assay [1]; more than 100 µM in assay [2]; more than 100 µM in [3]; more than 100 µM in assay [4]; more than 100 µM in [5]; 73.9 µM in [6]. Moreover, the TGI in assay [7] was 35.5 µM; in assay [8], more than 100 µM; in [9], more than 100 µM; in [10] it was more than 100 µM.

Take `O=C(CF)N(O)c1ccc(/C=C/c2ccccc2)cc1`: the GI50 in [1] is 1.98 µM; in [2] it was 15.8 µM; in assay [3], 2.77 µM; in assay [4], 1.06 µM; in assay [5] it was 5.6 µM; in assay [6], 2.16 µM. The GI50 was 3.41 µM in [7], 3.58 µM in [8], 0.322 µM in assay [9] and 1.48 µM in assay [10]. Further, the TGI is 7.14 µM in [1]; more than 100 µM in assay [2]; more than 96.2 µM in [3]; more than 34.1 µM in assay [4]; more than 100 µM in assay [5]; more than 100 µM in [6]. Also, the TGI in assay [7] was 31.9 µM; in assay [8], 26.2 µM; in assay [9], more than 100 µM; in assay [10] it was 6.96 µM.

With `C/C1=C/C2=CC(C)C[C@@H]2C(=O)[C@]2(C)C(=O)CC(C)(C)[C@H]2CC1=O` (stereo not given in full), the TGI in [1], in [2], in [3], in assay [4], in assay [5] and in [6] was more than 50 µM in each case. The TGI in assay [7], in assay [8], in assay [9] and in assay [10] was more than 50 µM in each case.

As to `C/C(=C\C1=C(Cl)C(=O)c2ccccc2C1=O)C(=O)O`, the GI50 in assay [1] was 17.6 µM; in [2], 18.6 µM; in assay [3], 22.6 µM; in assay [4], 15.3 µM; in assay [5], 17.3 µM; in assay [6], 21.8 µM. In addition, the GI50 is 21.5 µM in [7], 15.5 µM in assay [8], 21.9 µM in [9] and 17.6 µM in [10]. The TGI came out at 32.3 µM in assay [1]; 37.2 µM in assay [2]; 45.6 µM in [3]; 48.7 µM in assay [4]; 31.1 µM in assay [5]; 46.2 µM in assay [6]. The TGI in assay [7] was determined as 35.9 µM; in assay [8], 28.9 µM; in assay [9], 45.1 µM; in assay [10], 34.6 µM.

Consider `O=P(NC12CC3CC(CC(C3)C1)C2)(N1CC1)N1CC1`, for which the TGI in assay [1], in assay [2], in assay [3], in [4], in assay [5] and in assay [6] was more than 100 µM each time. For the same molecule, the TGI in assay [7], in assay [8], in assay [9] and in assay [10] was more than 100 µM each time.

On to `CC/C=C\C/C=C\C[C@H](O)C/C=C1/C(=O)C=C[C@@H]1C/C=C\CCCC(=O)O`, for which the GI50 is 2.47 µM in assay [1]; 14.5 µM in [2]; 3.56 µM in assay [3]; 3.88 µM in assay [4]; 6.03 µM in assay [5]; 2.17 µM in assay [6]. Besides, the GI50 in assay [7] is 10.4 µM; in assay [8], 5.99 µM; in assay [9], 3.84 µM; in [10], 5.17 µM. Further, the TGI turned out to be 5.83 µM in [1]; 30.5 µM in assay [2]; 13.9 µM in assay [3]; 20.1 µM in assay [4]; 21.5 µM in [5]; 14 µM in assay [6]. In addition, the TGI in [7] is 28.6 µM; in [8] it was 20.3 µM; in assay [9], more than 100 µM; in [10], 19 µM.

On to `CN(C)c1ccc(/C=C(\C#N)c2nc3ccccc3n2C)cc1`, for which the GI50 is 8.77 µM in assay [1]; 8.65 µM in assay [2]; 4.79 µM in assay [3]; 3.08 µM in [4]; 3.91 µM in assay [5]; 3.36 µM in [6]. For the same molecule, the GI50 was 2.54 µM in [7], 6.96 µM in assay [8], 3.2 µM in assay [9] and 2.99 µM in assay [10]. The TGI is 99 µM in assay [1]; more than 100 µM in assay [2]; more than 72.9 µM in assay [3]; 27.2 µM in assay [4]; more than 48.8 µM in assay [5]; 16 µM in assay [6]. In addition, the TGI is more than 31.3 µM in assay [7], more than 100 µM in assay [8], 17.9 µM in assay [9] and 13.1 µM in assay [10].
